Test results taken from patent US11084814B2, “Pyrido[3, 4-d]pyrimidine derivative and pharmaceutically acceptable salt thereof” (Teijin Pharma Limited, priority 2016, dated 2021).

Tests used:
CDK4/cyclin D3 = target: T1, CDK4/cyclin D3 (Homo sapiens, UniProt P11802); experiment: Human CDK4/cyclin D3 inhibitory activity (QS S Assist CDK4/Cyclin D3_FP Kit, IMAP fluorescent polarization); format: biochemical; conditions: read-out: CDK4 Activity symbol
T1 construct: purchased Carna Biosciences, Inc. QS S Assist CDK4/Cyclin D3_FP Kit
How it was run: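 Kinase reactions used kit CDK4/cyclin D3 at 12.5–25 ng/well with the kit ATP/substrate/metal mix in 20 mM HEPES (pH 7.4), 0.01% Tween20 and 2 mM DTT, run 45 min at room temperature. Phosphorylation was detected by IMAP fluorescence polarization (ex 485/em 535 nm) after 30 min binding in the dark. IC50 was fitted from percent inhibition against DMSO controls with and without enzyme.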

CDK2/cyclin A2 = target: T2, CDK2/cyclin A2 (Homo sapiens, UniProt P24941); experiment: Human CDK2/cyclin A2 inhibitory activity (QS S Assist CDK2/Cyclin A2_FP Kit, IMAP fluorescent polarization); format: biochemical; conditions: read-out: CDK2 Activity symbol
T2 construct: purchased Carna Biosciences, Inc. QS S Assist CDK2/Cyclin A2_FP Kit
How it was run: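 Kit CDK2/cyclin A2 (2.5 ng/well) was reacted with kit ATP/substrate/metal in 20 mM HEPES pH 7.4, 0.01% Tween 20 and 2 mM DTT for 60 min at room temperature. IMAP binding reagent was added for 30 min, then fluorescence polarization was read at 485/535 nm. IC50 came from dose-response fitting of percent inhibition.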

T1 sequence (P11802 whole entry): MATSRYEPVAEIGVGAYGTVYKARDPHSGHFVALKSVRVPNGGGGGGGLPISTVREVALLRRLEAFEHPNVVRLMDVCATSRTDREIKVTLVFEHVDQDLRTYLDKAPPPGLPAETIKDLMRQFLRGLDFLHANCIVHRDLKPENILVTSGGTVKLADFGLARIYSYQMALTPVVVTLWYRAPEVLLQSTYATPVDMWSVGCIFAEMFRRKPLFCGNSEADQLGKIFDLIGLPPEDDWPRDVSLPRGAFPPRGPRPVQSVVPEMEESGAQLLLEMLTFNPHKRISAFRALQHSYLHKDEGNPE
T1 sequence (P30281 whole entry partner): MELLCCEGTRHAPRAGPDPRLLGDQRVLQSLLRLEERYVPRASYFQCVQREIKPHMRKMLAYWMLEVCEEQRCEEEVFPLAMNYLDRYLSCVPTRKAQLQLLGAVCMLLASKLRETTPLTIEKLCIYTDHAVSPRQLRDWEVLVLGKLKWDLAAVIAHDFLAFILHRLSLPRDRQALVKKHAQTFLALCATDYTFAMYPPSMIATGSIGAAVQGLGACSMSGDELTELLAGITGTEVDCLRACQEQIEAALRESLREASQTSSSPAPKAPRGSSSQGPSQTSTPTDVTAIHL

Structure (SMILES)	IC50 (CDK4/cyclin D3)	IC50 (CDK2/cyclin A2)
C[C@@H](O)c1cc2cnc(Nc3ccc(N4CCNCC4=O)cn3)nc2c(N2CCCC2)n1 [Compound 51]	< 0.01 µM	≥ 0.1 µM
O=C1CCNCCN1c1ccc(Nc2ncc3cc(C4COC4)nc(N4CCCCC4)c3n2)nc1 [Compound 276]	< 0.01 µM	≥ 0.1 µM
C[C@@H](O)c1cc2cnc(Nc3ccc(CN4CCC(CO)CC4)cn3)nc2c(N2CCOCC2)n1 [Compound 70]	0.01 to 0.1 µM	≥ 0.1 µM
CC(O)c1cc2cnc(Nc3ccc(N4CCNCC4=O)cn3)nc2c(N2CCCCC2C)n1 (stereo not shown) [Compound 303]	< 0.01 µM	≥ 0.1 µM
C[C@@H](O)c1cc2cnc(Nc3ccc4c(n3)CCN(C(=O)CN3CC5(CC(O)C5)C3)C4)nc2c(N2C3CCC2CC3)n1 [Compound 267]	< 0.01 µM	≥ 0.1 µM
OCCN1CCN(Cc2ccc(Nc3ncc4cc(C5COC5)nc(N5CCCCC5)c4n3)nc2)CC1 [Compound 275]	< 0.01 µM	≥ 0.1 µM
C[C@@H](O)c1cc2cnc(Nc3ccc(C(=O)N4CCN(C)CC4)cn3)nc2c(N2CCC(F)CC2)n1 [Compound 320]	< 0.01 µM	≥ 0.1 µM
C[C@@H](O)c1cc2cnc(Nc3ccc4c(n3)CCN(CCO)C4)nc2c(N2CCC(F)(F)CC2)n1 [Compound 81]	< 0.01 µM	≥ 0.1 µM
C[C@@H](O)c1cc2cnc(Nc3ccc(OC4CCN(CCO)CC4)cn3)nc2c(N2CCCCC2)n1 [Compound 165]	< 0.01 µM	≥ 0.1 µM
C[C@@H](O)c1cc2cnc(Nc3ccc4c(n3)CCN(C(=O)CN3CCN(C)CC3)C4)nc2c(N2C3CCC2CC3)n1 [Compound 264]	< 0.01 µM	≥ 0.1 µM
C[C@@H](O)c1cc2cnc(Nc3ccc(CN4CCN(CCO)CC4)cn3)nc2c(N2CCCC2(C)C)n1 [Compound 75]	< 0.01 µM	0.01 to 0.1 µM
C[C@@H](O)c1cc2cnc(Nc3ccc(O[C@H]4CCCN(CCO)C4)cn3)nc2c(N2C3CCC2CC3)n1 [Compound 253]	< 0.01 µM	≥ 0.1 µM
C[C@@H](O)c1cc2cnc(Nc3ccc(CN4CCN(CCO)CC4)cn3)nc2c(N2CCC(O)CC2)n1 [Compound 106]	< 0.01 µM	≥ 0.1 µM
O=C1CCNCCN1c1ccc(Nc2ncc3cc(CO)nc(N4CCCCC4)c3n2)nc1 [Compound 244]	< 0.01 µM	≥ 0.1 µM
CC(O)c1cc2cnc(Nc3ccc(CN4CCN(CCO)CC4)cn3)nc2c(N2CCOCC2C)n1 (stereo not shown) [Compound 294]	< 0.01 µM	≥ 0.1 µM
C[C@@H](O)c1cc2cnc(Nc3ccc(CN4CCN(CCO)CC4)cn3)nc2c(N2CCC[C@@H]2C)n1 [Compound 98]	0.01 to 0.1 µM	≥ 0.1 µM
C[C@@H](O)c1cc2cnc(Nc3ccc(C(=O)N4CCC(N(C)C)CC4)cn3)nc2c(N2CCCCC2)n1 [Compound 315]	< 0.01 µM	≥ 0.1 µM
Cc1nc(Nc2ncc3cc([C@@H](C)O)nc(N4CCCCC4)c3n2)ccc1N1CCNCC1=O [Compound 260]	< 0.01 µM	≥ 0.1 µM

Structure (SMILES)	IC50 (CDK4/cyclin D3)	IC50 (CDK2/cyclin A2)
Cc1nc(Nc2ncc3cc([C@@H](C)O)nc(N4CCCCC4)c3n2)ccc1N1CC2(C1)CN(C1COC1)C2 [Compound 327]	< 0.01 µM	≥ 0.1 µM
C[C@@H](O)c1cc2cnc(Nc3ccc(C(=O)N4CCC(O)CC4)cn3)nc2c(N2CCCCC2)n1 [Compound 311]	< 0.01 µM	≥ 0.1 µM
CC(O)c1cc2cnc(Nc3ccc(N4CCCNCC4=O)cn3)nc2c(N2C3CCCC2CC3)n1 (stereo not shown) [Compound 329]	< 0.01 µM	0.01 to 0.1 µM
CC(O)c1cc2cnc(Nc3ccc(N4CCNCC4)cn3)nc2c(N2CCOCC2C)n1 (stereo not shown) [Compound 289]	< 0.01 µM	≥ 0.1 µM
C[C@@H](O)c1cc2cnc(Nc3ccc(CN4CCN(C)C[C@@H]4C)cn3)nc2c(N2CCCCC2)n1 [Compound 186]	< 0.01 µM	≥ 0.1 µM
C[C@@H](O)c1cc2cnc(Nc3ccc(N4CCN(C)CCC4=O)cn3)nc2c(N2CCCC2)n1 [Compound 120]	< 0.01 µM	≥ 0.1 µM
C[C@@H](O)c1cc2cnc(Nc3ccc4c(n3)CCN(CC3COC3)C4)nc2c(N2CCCCC2)n1 [Compound 197]	0.01 to 0.1 µM	≥ 0.1 µM
C[C@@H](O)c1cc2cnc(Nc3ccc(N4CCNCC4=O)cn3)nc2c(N2C3CCCC2CC3)n1 [Compound 281]	< 0.01 µM	≥ 0.1 µM
C[C@@H](O)c1cc2cnc(Nc3ccc4c(n3)CCN(C(=O)C3CNCCO3)C4)nc2c(N2CCCCC2)n1 (stereo partly shown) [Compound 216]	< 0.01 µM	≥ 0.1 µM
C[C@@H](O)c1cc2cnc(Nc3ccc(N4CCNCCC4=O)cn3)nc2c(N2CCCCC2)n1 [Compound 89]	< 0.01 µM	≥ 0.1 µM
C[C@@H](O)c1cc2cnc(Nc3ccc4c(n3)CCN(C(=O)CN3CC5(CC(O)C5)C3)C4)nc2c(N2CCCCC2)n1 [Compound 268]	< 0.01 µM	≥ 0.1 µM
Cc1nc(Nc2ncc3cc([C@@H](C)O)nc(N4C5CCC4COC5)c3n2)ccc1N1CCNCC1 [Compound 298]	< 0.01 µM	≥ 0.1 µM
CC[C@H](O)c1cc2cnc(Nc3ccc(CN4CCN(CCO)CC4)cn3)nc2c(N2CCC[C@H]2C)n1 [Compound 248]	< 0.01 µM	≥ 0.1 µM
C[C@@H](O)c1cc2cnc(Nc3ccc4c(n3)CCN(C(=O)Cn3cnnc3)C4)nc2c(N2CCCCC2)n1 [Compound 333]	< 0.01 µM	≥ 0.1 µM
C[C@@H](O)c1cc2cnc(Nc3ccc(CN4CCN(CCO)CC4)cn3)nc2c(N2CCC2)n1 [Compound 47]	0.01 to 0.1 µM	≥ 0.1 µM
C[C@@H](O)c1cc2cnc(Nc3ccc(N4CCNCC4=O)cn3)nc2c(-c2ccccc2)n1 [Compound 191]	0.01 to 0.1 µM	≥ 0.1 µM
C[C@@H](O)c1cc2cnc(Nc3ccc4c(n3)CCN(C3CN(C)C3)C4)nc2c(N2C3CCC2CC3)n1 [Compound 240]	< 0.01 µM	≥ 0.1 µM

Continued, values first:

IC50 (CDK4/cyclin D3)	IC50 (CDK2/cyclin A2)	Structure (SMILES)
< 0.01 µM	≥ 0.1 µM	OCCc1cc2cnc(Nc3ccc4c(n3)CCN(CCO)C4)nc2c(N2CCCCC2)n1 [Compound 109]
< 0.01 µM	0.01 to 0.1 µM	C[C@@H](O)c1cc2cnc(Nc3ccc(N4CCCNCC4=O)cn3)nc2c(N2CCCCCC2)n1 [Compound 307]
0.01 to 0.1 µM	≥ 0.1 µM	C[C@@H](O)c1cc2cnc(Nc3ccc(O[C@H]4CCN(CCO)C[C@@H]4F)cn3)nc2c(N2CCCCC2)n1 [Compound 131]
0.01 to 0.1 µM	≥ 0.1 µM	CN(C)C(=O)c1cc2cnc(Nc3ccc(N4CCNCC4)cn3)nc2c(N2CCCCC2)n1 [Compound 27]
< 0.01 µM	≥ 0.1 µM	OCc1cc2cnc(Nc3ccc(N4CCNCC4)nn3)nc2c(N2CCCCC2)n1 [Compound 107]
< 0.01 µM	0.01 to 0.1 µM	Cc1nc(Nc2ncc3cc([C@@H](C)O)nc(N4CCCCCC4)c3n2)ccc1N1CCCNCC1=O [Compound 306]
< 0.01 µM	≥ 0.1 µM	CC(O)c1cc2cnc(Nc3ccc(CN4CCN(C)CC4C)cn3)nc2c(N2CCCCC2)n1 (stereo not shown) [Compound 152]
< 0.01 µM	≥ 0.1 µM	C[C@H]1CCN(c2nc([C@@H](C)O)cc3cnc(Nc4ccc(N5CCNCC5=O)cn4)nc23)C1 [Compound 257]
< 0.01 µM	≥ 0.1 µM	C[C@@H](O)c1cc2cnc(Nc3ccc(O[C@@H]4CCN(CCO)C[C@@H]4F)cn3)nc2c(N2CCCCC2)n1 [Compound 132]
0.01 to 0.1 µM	≥ 0.1 µM	COCc1cc2cnc(Nc3ccc(N4CCNCC4)cn3)nc2c(N2CCOCC2)n1 [Compound 32]
< 0.01 µM	≥ 0.1 µM	c1cc(Nc2ncc3cc(C4CCOC4)nc(N4CCCCC4)c3n2)ncc1CN1CCNCC1 (stereo not shown) [Compound 206]
0.01 to 0.1 µM	≥ 0.1 µM	C[C@@H](O)c1cc2cnc(Nc3ccc(CN4CCN(CCO)CC4)cn3)nc2c(N2CCS(=O)(=O)CC2)n1 [Compound 85]
≥ 0.1 µM	≥ 0.1 µM	OCCc1cc2cnc(Nc3ccc(N4CCNCC4)cn3)nc2c(N2CCOCC2)n1 [Compound 38]
< 0.01 µM	≥ 0.1 µM	C[C@@H](O)c1cc2cnc(Nc3ccc(C(=O)N4CC[C@@H](N(C)C)C4)cn3)nc2c(N2CCCCC2)n1 [Compound 312]
< 0.01 µM	≥ 0.1 µM	CC1CCC(C)N1c1nc([C@@H](C)O)cc2cnc(Nc3ccc(CN4CCN(C)CC4)cn3)nc12 (stereo partly shown) [Compound 140]
0.01 to 0.1 µM	≥ 0.1 µM	CC(O)c1cc2cnc(Nc3ccc(N4CCNCC4=O)cn3)nc2c(N2CCOCC2C)n1 (stereo not shown) [Compound 300]
< 0.01 µM	≥ 0.1 µM	C[C@@H](O)c1cc2cnc(Nc3ccc(N4CCN(CCS(C)(=O)=O)CC4)nn3)nc2c(N2CCCCC2)n1 [Compound 114, (R)-1-(2-((6-(4-(2-(methylsulfonyl)ethyl)piperazin-1-yl)pyridazin-3-yl)amino)-8-(piperidin-1-yl)pyrido[3,4-d]pyrimidin-6-yl)ethanol]
< 0.01 µM	≥ 0.1 µM	CO[C@H](C)c1cc2cnc(Nc3ccc(N4CCNCC4)nn3)nc2c(N2CCCCC2)n1 [Compound 118]
0.01 to 0.1 µM	≥ 0.1 µM	C[C@@H](O)c1cc2cnc(Nc3ccc4c(n3)CCN(C(=O)Cn3cncn3)C4)nc2c(N2CCCCC2)n1 [Compound 332]
< 0.01 µM	≥ 0.1 µM	C[C@@H](O)c1cc2cnc(Nc3ccc4c(n3)CN(CCO)C4)nc2c(N2CCCCC2)n1 [Compound 201]
< 0.01 µM	≥ 0.1 µM	C[C@@H](O)c1cc2cnc(Nc3ccc(CN4CCN(C)CC4)cn3)nc2c(N2CC[C@H](F)C2)n1 [Compound 117]
